Tests used:
Rattus norvegicus [1] = assay: Inhibition of AII induced rat assessed as vasoconstrictor at 15 mg/kg, iv; assay type: functional
[2] = molecular target: T1, Type-1 angiotensin II receptor A (Rattus norvegicus, UniProt P25095); assay: Inhibition of rat adrenal cortex angiotensin II; assay type: tissue-based
T1 sequence (P25095 whole entry): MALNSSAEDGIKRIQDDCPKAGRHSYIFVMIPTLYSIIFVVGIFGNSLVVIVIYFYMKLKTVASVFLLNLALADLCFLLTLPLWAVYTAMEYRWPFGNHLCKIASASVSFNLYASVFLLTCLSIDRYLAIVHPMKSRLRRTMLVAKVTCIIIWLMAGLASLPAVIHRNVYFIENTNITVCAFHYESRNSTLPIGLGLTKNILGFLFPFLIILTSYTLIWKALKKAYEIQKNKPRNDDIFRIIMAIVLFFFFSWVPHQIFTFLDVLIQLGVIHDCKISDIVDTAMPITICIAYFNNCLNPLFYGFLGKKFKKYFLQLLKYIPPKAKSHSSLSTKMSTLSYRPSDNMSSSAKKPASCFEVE

Cytospora mali = assay: Antifungal activity against Valsa mali assessed as bacterial growth inhibition at 50 ug/ml incubated for 5 days relative to control; assay type: functional; conditions: 120 h, time 5 day
Fusarium graminearum = assay: Antifungal activity against Gibberella zeae assessed as bacterial growth inhibition at 50 ug/ml incubated for 5 days relative to control; assay type: functional; conditions: 120 h, time 5 day
Fusarium oxysporum = assay: Antifungal activity against Fusarium oxysporum assessed as bacterial growth inhibition at 50 ug/ml incubated for 5 days relative to control; assay type: functional; conditions: 120 h, time 5 day
Rattus norvegicus [3] = assay: Inhibition of AII induced mean arterial blood pressure in rat assessed as vasoconstrictor at 5 mg/kg, po; assay type: functional
Rattus norvegicus [4] = assay: Inhibition of AII induced mean arterial blood pressure in rat assessed as vasoconstrictor at 1 mg/kg, po; assay type: functional
[5] = molecular target: T2, Type-2 angiotensin II receptor (Rattus norvegicus, UniProt P35351); assay: Binding affinity to AT2 in rat brain; assay type: tissue-based
T2 sequence (P35351 whole entry): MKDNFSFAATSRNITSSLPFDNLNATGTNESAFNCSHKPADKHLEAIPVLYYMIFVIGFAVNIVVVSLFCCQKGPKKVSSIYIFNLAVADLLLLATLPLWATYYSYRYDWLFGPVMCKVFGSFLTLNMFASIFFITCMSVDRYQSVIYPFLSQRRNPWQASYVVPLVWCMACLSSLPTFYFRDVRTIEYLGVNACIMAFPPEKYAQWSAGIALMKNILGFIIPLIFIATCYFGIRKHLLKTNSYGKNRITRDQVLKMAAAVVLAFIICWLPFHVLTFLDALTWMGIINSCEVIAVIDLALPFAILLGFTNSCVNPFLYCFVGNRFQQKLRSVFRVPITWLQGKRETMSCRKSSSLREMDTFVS

## CCC1Nc2ccc(C(C)C)cc2C(=O)N1Cc1ccc(-c2ccccc2-c2nn[nH]n2)cc1 (stereo not drawn)
Rattus norvegicus [1]
  inhibition in vivo at 15 mg/kg: 88%
[2]
  IC50: 90 nM

## CCCn1cnc2ccccc2c1=O
Cytospora mali
  inhibition at 50 µg/mL: 0.9%
Fusarium graminearum
  inhibition at 50 µg/mL: 5.5%
Fusarium oxysporum
  inhibition at 50 µg/mL: 4.9%

## CCCCc1nc2ccc(C(C)O)cc2c(=O)n1Cc1ccc(-c2ccccc2-c2nn[nH]n2)cc1 (stereo not drawn)
[2]
  IC50: 5 nM
Rattus norvegicus [3]
  Activity: 65 mmHg

## CCCCc1nc2ccc([C@@]3(C)C[C@H]4CC[C@H](C)N4O3)cc2c(=O)n1Cc1ccc(-c2ccccc2-c2nnn[nH]2)cc1
Rattus norvegicus [4]
  Activity: 55 mmHg

## Cc1nc2ccc(N(Cc3ccccc3Cl)C(=O)c3ccccc3)cc2c(=O)n1Cc1ccc(-c2ccccc2-c2nn[nH]n2)cc1
[5]
  IC50: 0.06 nM

## CCCCc1nc2ccc(C(O)C(C)(C)C)cc2c(=O)n1Cc1ccc(-c2ccccc2-c2nn[nH]n2)cc1 (stereo not drawn)
[2]
  IC50: > 1000 nM
Rattus norvegicus [3]
  Activity: 65 mmHg

## CCn1cnc2ccc(Cl)cc2c1=O
Cytospora mali
  inhibition at 50 µg/mL: 0.9%
Fusarium graminearum
  inhibition at 50 µg/mL: 5.5%
Fusarium oxysporum
  inhibition at 50 µg/mL: 4.9%

## CCCCc1nc2ccc(C(C)NC(C)=O)cc2c(=O)n1Cc1ccc(-c2ccccc2-c2nn[nH]n2)cc1 (stereo not drawn)
[2]
  IC50: > 1000 nM
Rattus norvegicus [3]
  Activity: 65 mmHg

## CCCCc1nc2ccc([C@]3(C)C[C@H]4CCCN4O3)cc2c(=O)n1Cc1ccc(-c2ccccc2-c2nn[nH]n2)cc1
Rattus norvegicus [4]
  Activity: 55 mmHg

## CCc1nc2ccc(N(Cc3ccccc3)C(=O)c3cccs3)cc2c(=O)n1Cc1ccc(-c2ccccc2-c2nn[nH]n2)cc1
[5]
  IC50: 0.22 nM

## CCn1cnc2ccccc2c1=O
Cytospora mali
  inhibition at 50 µg/mL: 0.9%
Fusarium graminearum
  inhibition at 50 µg/mL: 5.5%
Fusarium oxysporum
  inhibition at 50 µg/mL: 4.9%

## CCCCC1Nc2ccc(C(C)C)cc2C(=O)N1Cc1ccc(-c2ccccc2-c2nn[nH]n2)cc1 (stereo not drawn)
Rattus norvegicus [1]
  inhibition in vivo at 15 mg/kg: 88%
[2]
  IC50: 1100 nM

## CCCCc1nc2ccc([C@]3(C)C[C@H]4CC[C@H](C)N4O3)cc2c(=O)n1Cc1ccc(-c2ccccc2-c2nnn[nH]2)cc1
Rattus norvegicus [4]
  Activity: 55 mmHg

## CCC1Nc2ccc(C)cc2C(=O)N1Cc1ccc(-c2ccccc2-c2nn[nH]n2)cc1 (stereo not drawn)
Rattus norvegicus [1]
  inhibition in vivo at 15 mg/kg: 88%
[2]
  IC50: 13000 nM

## CCCCc1nc2ccc([C@H]3C[C@H]4CCCN4O3)cc2c(=O)n1Cc1ccc(-c2ccccc2-c2nnn[nH]2)cc1
Rattus norvegicus [4]
  Activity: 55 mmHg

## CCCCc1nc2ccc(C(O)CO)cc2c(=O)n1Cc1ccc(-c2ccccc2-c2nn[nH]n2)cc1 (stereo not drawn)
[2]
  IC50: > 1000 nM
Rattus norvegicus [3]
  Activity: 65 mmHg

## CCCC1N(Cc2ccc(-c3ccccc3-c3nn[nH]n3)cc2)C(=O)c2ccccc2N1C (stereo not drawn)
Rattus norvegicus [1]
  inhibition in vivo at 15 mg/kg: 88%
[2]
  IC50: 540 nM

## CCCC1Nc2ccc(C(C)C)cc2C(=O)N1Cc1ccc(-c2ccccc2-c2nn[nH]n2)cc1 (stereo not drawn)
Rattus norvegicus [1]
  inhibition in vivo at 15 mg/kg: 88%
[2]
  IC50: 50 nM

## CCCCc1nc2ccc([C@@]3(C)C[C@H]4CCCCN4O3)cc2c(=O)n1Cc1ccc(-c2ccccc2-c2nn[nH]n2)cc1
Rattus norvegicus [4]
  Activity: 55 mmHg

## CCCCc1nc2ccc([C@@]3(C)C[C@H]4CCCN4O3)cc2c(=O)n1Cc1ccc(-c2ccccc2-c2nn[nH]n2)cc1
Rattus norvegicus [4]
  Activity: 55 mmHg

## CCCCc1nc2ccc([C@]3(C)C[C@H]4CCCCN4O3)cc2c(=O)n1Cc1ccc(-c2ccccc2-c2nn[nH]n2)cc1
Rattus norvegicus [4]
  Activity: 55 mmHg

## CCCCc1nc2ccc(C(CC)OC)cc2c(=O)n1Cc1ccc(-c2ccccc2-c2nn[nH]n2)cc1 (stereo not drawn)
[2]
  IC50: 18 nM
Rattus norvegicus [3]
  Activity: 65 mmHg

## CCCCc1nc2ccc(C(OC)c3ccccc3)cc2c(=O)n1Cc1ccc(-c2ccccc2-c2nn[nH]n2)cc1 (stereo not drawn)
[2]
  IC50: > 1000 nM
Rattus norvegicus [3]
  Activity: 65 mmHg

## Cc1cc(O)no1 [HYMEXAZOL]
Cytospora mali
  inhibition at 50 µg/mL: 22.5%
Fusarium graminearum
  inhibition at 50 µg/mL: 50.4%
Fusarium oxysporum
  inhibition at 50 µg/mL: 55.4%

## CCCn1cnc2ccc(Cl)cc2c1=O
Cytospora mali
  inhibition at 50 µg/mL: 40.9%
Fusarium graminearum
  inhibition at 50 µg/mL: 5.5%
Fusarium oxysporum
  inhibition at 50 µg/mL: 4.9%

## CCCCc1nc2ccc([C@H]3C[C@H]4CCCCN4O3)cc2c(=O)n1Cc1ccc(-c2ccccc2-c2nnn[nH]2)cc1
Rattus norvegicus [4]
  Activity: 55 mmHg

## CCCCc1nc2ccc([C@@]3(CO)C[C@H]4CCCN4O3)cc2c(=O)n1Cc1ccc(-c2ccccc2-c2nnn[nH]2)cc1
Rattus norvegicus [4]
  Activity: 55 mmHg

Source: ChEMBL document CHEMBL5260833, “An overview of quinazolines: Pharmacological significance and recent developments” (Eur J Med Chem, 2018)
